Patent EP4711368A1 (priority 2023, dated 2024)
Where two headings read alike, the source gives them in different places.

Legend:
SD rats [1] = test: TC-ED50 after single intravenous injection (Table 2; method not described); type: in vivo
SD rats [2] = test: animal or person; type: in vivo; settings: iv; for Minimal effective analgesic dose / Minimal effective anesthetic dose / Onset time / Righting feflex duration / Sedation Duration: rat, in vivo; for minimal effective dose: Rattus norvegicus
SD rats [3] = settings: rat, in vivo; for MLD: iv
[4] = read-out: Minimal effective analgesic dose
[5] = read-out: Minimal effective anesthetic dose

Row | Compound | TC-ED50 (SD rats [1]) [mg/kg] | Minimal effective analgesic dose (SD rats [2]) [mg/kg] | Minimal effective anesthetic dose (SD rats [2]) [mg/kg] | Onset time (SD rats [2]) [min] | Righting feflex duration (SD rats [2]) [min] | Sedation Duration (SD rats [2]) [min] | TI (SD rats [3]) | MLD (SD rats [3]) [mg/kg] | minimal effective dose (SD rats [2]; [4]) [mg/kg] | minimal effective dose (SD rats [2]; [5]) [mg/kg] | TI (SD rats [3]; SD) | MLD (SD rats [3]; SD) [mg/kg]
1 | CCC(=O)OCC1N=C(c2ccccn2)c2cc(Br)ccc2-n2c(C)cnc21 (stereo not drawn) [Compound 98] | 22.0 | 20 | 5.0 | 0.5 to 0.6 | 11.6 to 17.4 | 72.5 to 208.7 | 6.0 | 30 |  |  |  | 
2 | CC(C)OC(=O)OCC1N=C(c2ccccn2)c2cc(Br)ccc2N(C)C1=O (stereo not drawn) [Compound 55] | 15.4 | 20 | 1.0 | 0.2 to 0.7 | 2.4 to 25.4 | 11.3 to 141.0 | >20. 0 | >20 |  |  |  | 
3 | Cc1cnc2n1-c1ccc(Br)cc1C(c1ccccn1)=NC2COC(=O)C(C)C (stereo not drawn) [Compound 97] | 9.9 | 10 | 2.0 | 0.4 to 0.7 | 0.7 to 129.9 | 16.9 to 187.5 | 15.0 | 30 |  |  |  | 
4 | CCOC(=O)CN1N=C(c2ccccn2)C(Br)=CN(C)C1=O [Compound 346] |  |  |  | 0.57 | 2.63 | 45.10 |  |  | 18.4 | 18.4 | >1 | >18.4
5 | Cc1cnc2n1-c1ccc(Br)cc1C(c1ccccn1)=NN2CC(=O)OC1(C)COC1 [Compound 314] |  |  |  | 0.15 to 0.67 | 1.27 to 1.40 | 11.02 to 18.83 |  |  |  | 10 | 4 | 40
6 | C#C[C@@H](C)OC(=O)CN1N=C(c2ccccn2)c2cc(Br)ccc2-n2c(C)cnc21 [Compound 312] |  |  |  | 0.15 to 0.52 | 2.97 to 38.32 | 138.40 to 240 |  |  | 10 | 10 | 4 | 40
7 | Cc1cnc2n1-c1ccc(Br)cc1C(c1ccccn1)=NN2COC(=O)CCCl [Compound 319] |  |  |  | 0.38 to 0.48 | 7.58 to 8.00 | 21.82 to 52.53 |  |  |  | 7.5 | >1.3 | >10
8 | CC(C)C(=O)OCCN1N=C(c2ccccn2)c2cc(Br)ccc2N(C)C1=O [Compound 298] |  |  |  | 0.22 to 0.38 | 6.73 to 8.97 | 17.03 to 30.07 |  |  |  | 10 | 2 | 20
9 | Cc1cnc2n1-c1ccc(Br)cc1C(c1ccccn1)=NN2COC(=O)C(C)C [Compound 318] |  |  |  | 0.52 to 0.63 | 0.58 to 10.53 | 24.95 to 35.65 |  |  |  | 5 | >2 | >10
10 | CCOC(=O)CN1N=C(c2ccccn2)C=CN(C)C1=O [Compound 347] |  |  |  | 0.13 to 0.28 | 2.25 to 4.47 | 15.35 to 54.20 |  | 40 | 20 | 20 | 2 | 
11 | C=CC(C)(C)OC(=O)CCC1N=C(c2cccc[n+]2[O-])c2cc(Br)ccc2N(C)C1=O (stereo not drawn) [Compound 20] |  |  | 15.0 | 0.3 to 0.5 | 4.1 to 6.4 | 17.0 to 20.3 | >1.5 | >22.5 |  |  |  | 
12 | CC[C@@H](C)OC(=O)CN1N=C(c2ccccn2)c2cc(Br)ccc2N(C)C1=O [Compound 243] |  |  |  | 0.22 to 0.67 | 0.65 to 19.85 | 21.98 to 55.45 |  |  |  | 5 | 6 | 30
13 | CN1C(=O)C(CCO)N=C(c2ccccn2)c2cc(Br)ccc21 (stereo not drawn) [Compound 117] |  |  | 25.0 | 0.4 to 0.5 | 2.7 to 3.8 | 14.6 to 32.0 | 1.6 | 40 |  |  |  | 
14 | CN1C(=O)N(CC(=O)OC2CC2)N=C(c2ccccn2)c2cc(Br)ccc21 [Compound 244] |  |  |  | 0.15 to 0.18 | 0.78 to 3.85 | 11.42 to 18.83 |  |  |  | 15 | 2.7 | 40
